Tested on: RBL-2H3 cells
Assay: RBL cell morphology, actin and Cdc42 distribution after activation
Type: cell-based, rat
Conditions: 10 μM
Description: Live cell microscopy was carried out on RBL-2H3 cells. Cells were grown on coverslips overnight, washed and overlaid with Tyrode's buffer (10 mM Hepes, pH 7.4, 130 mM NaCl, 5 mM KCl, 1.4 mM CaCl2, 1 mM MgCl2, 5.6 mM glucose and 0.1% BSA). Time lapse images were taken after addition of 10 μM MLS000693334 (final concentration) at 60 s intervals for up to 30 min. Activation with Thy-1 cross-linking was performed as described {Surviladze, 1998 #50}. Briefly, RBL cells incubated with OX7 mAb (Santa Cruz Biothechnology) final concentration 50 ug/ml for 1 h at 37 C. The unbound OX7 mAb was washed out with Tyrode's solution and activation initiated by adding anti-mouse IgG (25 ug/ml) (Jackson Immunoresearch Laboratories). Imaging was performed using a Bio-Rad Radiance 2100 confocal microscope equipped with a 60×1.4 NA oil immersion objective equipped with Lasersharp3000 software.
RBL-2H3 cells were grown in RPMI supplemented with 10% fetal bovine serum on cover slips. Semi-confluent cells were washed with Tyrode's solution and incubated with DMSO (vehicle) or 10 μM MLS000693334 for 1 h at 37° C. Inhibitor treated and un-treated cells were stimulated with 1 μg/ml DNP-BSA for 30 min as previously described {Wilson, 1991 #52}. Activation stopped by transferring of samples on ice. […]

COc1ccc(C2CC(c3ccccc3)=NN2c2ccc(S(N)(=O)=O)cc2)cc1 (centres unmarked) [MLS000693334, 4-[3-(4-methoxyphenyl)-5-phenyl-3,4-dihydropyrazol-2-yl]benzenesulfonamide]
Filopodia formation and cell spreading after cross-linking of Thy-1: dramatically inhibits | Morphology of resting RBL-2H3 cells: no change in morphology
